Measured values as given in ChEMBL document CHEMBL2331175, “On dihydroorotate dehydrogenases and their inhibitors and uses” (J Med Chem, 2013).
pIC50, pKi: −log10 of the molar value. Blank lines part the entries; values can stand above or below the compound they belong to.

How the values were obtained:
[1] = biological target: Voltage-gated inwardly rectifying potassium channel KCNH2 (Homo sapiens, UniProt Q12809); test: Inhibition of human ERG channel overexpressed in Chinese hamster CHOK1 cells by whole cell voltage clamp assay; type: cell-based, CHO-K1
Sequence of Voltage-gated inwardly rectifying potassium channel KCNH2 (Q12809 whole entry): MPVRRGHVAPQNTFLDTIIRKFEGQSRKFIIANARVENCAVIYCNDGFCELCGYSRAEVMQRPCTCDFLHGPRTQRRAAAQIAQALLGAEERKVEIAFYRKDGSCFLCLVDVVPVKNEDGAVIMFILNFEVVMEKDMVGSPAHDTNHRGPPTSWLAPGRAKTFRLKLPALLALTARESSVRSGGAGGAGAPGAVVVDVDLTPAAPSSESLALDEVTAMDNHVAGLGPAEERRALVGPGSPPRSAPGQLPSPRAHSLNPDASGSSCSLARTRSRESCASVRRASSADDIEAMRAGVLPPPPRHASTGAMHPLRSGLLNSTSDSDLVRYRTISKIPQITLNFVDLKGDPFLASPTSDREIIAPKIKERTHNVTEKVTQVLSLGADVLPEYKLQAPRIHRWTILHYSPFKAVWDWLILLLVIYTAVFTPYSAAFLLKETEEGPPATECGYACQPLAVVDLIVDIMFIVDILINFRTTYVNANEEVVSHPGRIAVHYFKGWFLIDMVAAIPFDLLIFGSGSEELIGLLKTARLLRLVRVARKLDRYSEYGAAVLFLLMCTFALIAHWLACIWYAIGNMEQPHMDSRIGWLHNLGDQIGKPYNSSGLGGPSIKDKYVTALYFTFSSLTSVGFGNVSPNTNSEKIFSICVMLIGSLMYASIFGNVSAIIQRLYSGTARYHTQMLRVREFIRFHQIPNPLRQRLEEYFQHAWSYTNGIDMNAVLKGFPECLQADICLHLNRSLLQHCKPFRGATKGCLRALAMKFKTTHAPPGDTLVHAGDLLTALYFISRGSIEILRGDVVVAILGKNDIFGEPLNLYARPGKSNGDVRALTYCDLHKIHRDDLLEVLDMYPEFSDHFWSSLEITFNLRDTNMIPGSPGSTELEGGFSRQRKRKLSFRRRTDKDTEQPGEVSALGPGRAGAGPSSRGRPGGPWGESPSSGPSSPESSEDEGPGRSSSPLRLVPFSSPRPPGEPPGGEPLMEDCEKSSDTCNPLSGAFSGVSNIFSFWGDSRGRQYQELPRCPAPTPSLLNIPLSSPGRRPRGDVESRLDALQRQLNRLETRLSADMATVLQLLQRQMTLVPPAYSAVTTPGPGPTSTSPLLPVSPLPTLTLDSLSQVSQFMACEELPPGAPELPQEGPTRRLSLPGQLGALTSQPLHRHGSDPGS

[2] = Half life in human; type: ADME, organism-based; conditions: in vivo
[3] = biological target: T1, Dihydroorotate dehydrogenase (quinone), mitochondrial (Homo sapiens, UniProt Q02127); test: Competitive inhibition of human purified recombinant DHODH in presence of cofactor ubiquinone
T1 sequence (Q02127 whole entry): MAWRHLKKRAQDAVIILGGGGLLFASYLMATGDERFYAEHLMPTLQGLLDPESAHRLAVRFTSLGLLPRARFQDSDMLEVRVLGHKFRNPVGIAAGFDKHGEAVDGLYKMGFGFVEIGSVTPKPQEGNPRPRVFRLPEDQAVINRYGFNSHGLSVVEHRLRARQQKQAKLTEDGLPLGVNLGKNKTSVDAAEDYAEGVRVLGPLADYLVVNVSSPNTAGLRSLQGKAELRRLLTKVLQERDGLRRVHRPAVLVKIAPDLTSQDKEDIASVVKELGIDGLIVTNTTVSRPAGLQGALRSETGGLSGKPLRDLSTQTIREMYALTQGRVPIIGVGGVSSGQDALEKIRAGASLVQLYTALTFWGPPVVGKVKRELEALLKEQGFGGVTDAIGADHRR

[4] = biological target: Dihydroorotate dehydrogenase (quinone), mitochondrial (Rattus norvegicus, UniProt Q63707); test: Inhibition of rat purified recombinant DHODH
Sequence of Dihydroorotate dehydrogenase (quinone), mitochondrial (Rattus norvegicus, UniProt Q63707) (Q63707 whole entry): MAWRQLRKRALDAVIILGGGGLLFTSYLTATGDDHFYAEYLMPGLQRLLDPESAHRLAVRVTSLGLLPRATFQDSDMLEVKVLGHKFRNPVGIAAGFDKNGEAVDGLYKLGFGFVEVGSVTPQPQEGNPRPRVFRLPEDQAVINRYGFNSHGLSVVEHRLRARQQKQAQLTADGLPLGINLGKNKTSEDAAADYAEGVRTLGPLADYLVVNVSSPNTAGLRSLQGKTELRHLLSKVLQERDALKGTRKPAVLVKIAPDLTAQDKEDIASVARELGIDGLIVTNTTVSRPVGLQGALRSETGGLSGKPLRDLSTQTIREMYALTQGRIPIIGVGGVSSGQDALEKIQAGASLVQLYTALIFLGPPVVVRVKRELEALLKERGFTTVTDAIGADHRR

[5] = biological target: Dihydroorotate dehydrogenase (quinone), mitochondrial (Rattus norvegicus) (UniProt Q63707); test: Competitive inhibition of rat purified recombinant DHODH in presence of cofactor ubiquinone
Sequence of Dihydroorotate dehydrogenase (quinone), mitochondrial (Rattus norvegicus) (Q63707 whole entry): as above

[6] = biological target: T1, Dihydroorotate dehydrogenase (quinone), mitochondrial; test: Inhibition of human purified recombinant DHODH
[7] = biological target: T2, Dihydroorotate dehydrogenase (Plasmodium falciparum, UniProt Q54A96); test: Inhibition of plasmodium falciparum DHODH assessed as inhibition of [14C]bicarbonate incorporation into pyrimidine nucleotide by HPLC analysis
T2 sequence (Q54A96 whole entry): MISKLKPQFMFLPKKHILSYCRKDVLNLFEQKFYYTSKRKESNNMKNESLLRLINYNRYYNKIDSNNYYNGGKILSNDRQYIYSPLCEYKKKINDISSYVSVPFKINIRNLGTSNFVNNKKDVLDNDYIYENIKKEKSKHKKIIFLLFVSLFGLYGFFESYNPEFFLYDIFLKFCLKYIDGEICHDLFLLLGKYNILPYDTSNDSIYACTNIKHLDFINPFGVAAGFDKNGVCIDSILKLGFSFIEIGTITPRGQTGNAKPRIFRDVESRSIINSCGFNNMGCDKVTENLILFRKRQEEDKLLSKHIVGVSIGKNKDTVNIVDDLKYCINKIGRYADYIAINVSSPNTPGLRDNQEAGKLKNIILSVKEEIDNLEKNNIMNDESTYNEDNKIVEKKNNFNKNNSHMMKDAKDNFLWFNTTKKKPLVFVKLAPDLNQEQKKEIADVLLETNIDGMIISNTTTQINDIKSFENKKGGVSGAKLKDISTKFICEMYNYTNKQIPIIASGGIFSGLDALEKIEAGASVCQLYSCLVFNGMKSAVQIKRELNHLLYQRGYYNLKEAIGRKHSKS

Compound: Cc1nc2cc(OC(F)(F)F)ccc2n1-c1ccc(C(=O)NC2CC2)s1
pIC50 [1]: > 5.55

half-life [2]: 3.5 h
Compound: Cc1cc(NC(=O)/C(C#N)=C(\O)C2CC2)ccc1C(F)(F)F

Kic [3]: 2.7 µM
pIC50 [4]: 6.15
Kic [5]: 60 nM
pIC50 [6]: 4.84
pKi [7]: 4.57
Compound: O=C1C(O)=C([C@H]2CC[C@H](c3ccc(Cl)cc3)CC2)C(=O)c2ccccc21 [ATOVAQUONE]

half-life [2]: > 336 h
Compound: C/C(O)=C(\C#N)C(=O)Nc1ccc(C(F)(F)F)cc1 [TERIFLUNOMIDE]
